Test results reported in ChEMBL document CHEMBL1201862, “PubChem BioAssay data set” (2004).
Calls of active or inactive are those of the source.

Experiments:
Troponin, cardiac muscle = Troponin, cardiac muscle (Homo sapiens, UniProt P19429+P45379+P63316); experiment: Fluorescence-based biochemical high throughput dose response assay for activators of the calcium sensitivity of cardiac Regulated Thin Filaments (RTF). [Related pubchem assays (depositor defined):AID493008, AID493018, AID504382, AID504383]; type: protein-complex assay
[1] = biological target: Peroxisome proliferator-activated receptor gamma/Nuclear receptor coactivator 1 (Homo sapiens, UniProt P37231); experiment: TR-FRET dose response biochemical High Throughput Screening assay for agonists of the steroid receptor coactivator 1 (SRC-1) recruitment by the peroxisome proliferator-activated receptor gamma (PPAR gamma): non-selective agonists. [Related pubchem assays (depositor defined):AID1300, AID1808, AID504735, AID631]; type: protein assay
[2] = biological target: T1, RNA-binding protein pos-1 (Caenorhabditis elegans, UniProt G5EF15); experiment: inhibitors of POS-1/mex-3 RNA binding, dose response, biochemical, fluorescence polarization (AID 1964);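 note: purified POS-1 fused to maltose binding protein made in E. coli; potency of compounds blocking POS-1 binding to fluorescent RNA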
T1 sequence (G5EF15 whole entry): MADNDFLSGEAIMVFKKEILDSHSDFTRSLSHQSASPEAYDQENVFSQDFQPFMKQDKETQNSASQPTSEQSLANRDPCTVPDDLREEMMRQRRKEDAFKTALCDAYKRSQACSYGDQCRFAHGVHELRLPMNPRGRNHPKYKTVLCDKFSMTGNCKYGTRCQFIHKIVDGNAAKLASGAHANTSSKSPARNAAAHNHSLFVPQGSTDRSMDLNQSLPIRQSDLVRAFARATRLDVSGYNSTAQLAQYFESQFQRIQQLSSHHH

[3] = biological target: Peroxisome proliferator-activated receptor gamma/Nuclear receptor coactivator 2 (Homo sapiens, UniProt P37231); experiment: (§1) TR-FRET dose response biochemical High Throughput Screening assay for agonists of the steroid receptor coactivator 2 (SRC-2) recruitment by the peroxisome proliferator-activated receptor gamma (PPAR gamma): non-selective agonists. [Related pubchem assays: 1297, 1032 ]; type: functional
[4] = biological target: Luciferin 4-monooxygenase (Photinus pyralis, UniProt P08659); experiment: firefly luciferase enzyme inhibitors, dose response, biochemical, luminescence (AID 1891)
[5] = biological target: T2, Endoribonuclease toxin MazF (Escherichia coli K-12, UniProt P0AE70); experiment: MazF toxin RNase activators, dose response, biochemical, fluorescence, single-stranded RNA substrate, uHTS hits (AID 588481); type: functional
T2 sequence (P0AE70 whole entry): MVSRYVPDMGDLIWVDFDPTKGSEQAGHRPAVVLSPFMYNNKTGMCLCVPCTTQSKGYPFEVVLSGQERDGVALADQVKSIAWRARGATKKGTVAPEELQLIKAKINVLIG

[6] = Luminescence Cell-Based Dose Confirmation HTS to Identify Inhibitors of Platelet Dense Granule Release. [Related pubchem assays: 1663 (Primary HTS), 1678 (Summary of Project)]; type: functional
[7] = biological target: T2, Endoribonuclease toxin MazF; experiment: fluorescent RNA oligo signal without MazF, dose response, counter-screen for MazEF activator project, biochemical, fluorescence, single-stranded RNase substrate (AID 588502); type: functional
[8] = biological target: T3, Zinc finger protein mex-5 (Caenorhabditis elegans, UniProt Q9XUB2); experiment: MEX-5/TCR-2 RNA interaction inhibitors, dose response, biochemical, C. elegans, fluorescence polarization (AID 1960)
T3 sequence (Q9XUB2 whole entry): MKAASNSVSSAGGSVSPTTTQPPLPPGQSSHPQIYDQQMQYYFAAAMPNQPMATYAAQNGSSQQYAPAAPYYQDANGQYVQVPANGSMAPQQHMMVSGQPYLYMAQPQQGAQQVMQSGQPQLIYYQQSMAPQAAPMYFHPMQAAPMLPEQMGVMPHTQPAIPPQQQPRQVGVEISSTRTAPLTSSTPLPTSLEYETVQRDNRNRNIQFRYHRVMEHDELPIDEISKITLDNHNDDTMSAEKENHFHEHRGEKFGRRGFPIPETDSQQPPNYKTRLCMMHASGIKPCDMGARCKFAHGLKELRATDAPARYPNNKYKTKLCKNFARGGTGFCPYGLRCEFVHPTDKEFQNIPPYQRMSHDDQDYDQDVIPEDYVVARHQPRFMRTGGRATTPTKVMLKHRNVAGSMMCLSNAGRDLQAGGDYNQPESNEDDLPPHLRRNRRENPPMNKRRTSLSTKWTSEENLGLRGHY

[9] = biological target: Peroxisome proliferator-activated receptor gamma/Nuclear receptor coactivator 3 (Homo sapiens, UniProt P37231); experiment: as §1, with “3 (SRC-3)” for “2 (SRC-2)”, “1301 (Confirmation screen.), 1048 (Primary screen.)]” for “1297, 1032 ]”; type: functional
Bcl-2-like protein 10 = Bcl-2-like protein 10 (Homo sapiens, UniProt Q9HD36); experiment: displacers of TR3 peptide from Bcl-B, primary screen, selectivity assay for Bfl-1 inhibitor project, biochemical, fluorescence polarization, FITC-TR3 peptide (AID 748);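 note: fluorescence polarization from a fluorescein-labelled TR3 peptide binding purified Bcl-B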
[10] = biological target: DNA dC->dU-editing enzyme APOBEC-3G (Homo sapiens, UniProt Q9HC16); type: functional;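 note: Dose-response counterscreen measuring inhibition of APOBEC3G DNA deaminase activity, run while confirming APOBEC3A inhibitors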
[11] = biological target: T4, Carboxy-terminal domain RNA polymerase II polypeptide A small phosphatase 1 (Homo sapiens, UniProt Q9GZU7); experiment: inhibitors of CTDSP1, concentration-response testing, biochemical assay, absorbance-based, actives from ultra-high-throughput screening (AID 540297); type: functional
T4 sequence (Q9GZU7 whole entry): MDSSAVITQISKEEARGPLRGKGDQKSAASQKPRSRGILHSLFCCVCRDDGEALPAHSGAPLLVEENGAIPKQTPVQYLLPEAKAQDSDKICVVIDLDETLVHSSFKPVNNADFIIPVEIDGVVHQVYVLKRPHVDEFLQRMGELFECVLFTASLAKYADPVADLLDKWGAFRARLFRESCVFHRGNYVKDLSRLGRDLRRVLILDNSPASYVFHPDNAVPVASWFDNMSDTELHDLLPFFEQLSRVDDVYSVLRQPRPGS

[12] = biological target: DNA dC->dU-editing enzyme APOBEC-3A (Homo sapiens, UniProt P31941); experiment: Dose Response confirmation of small molecule APOBEC3A DNA Deaminase Inhibitors via a fluorescence-based single-stranded DNA deaminase assay. [Related pubchem assays (depositor defined):AID493011, AID493024]; type: functional
[13] = biological target: DNA damage-inducible transcript 3 protein (Mus musculus, UniProt P35639); type: functional, Cricetulus griseus
[14] = biological target: T5, Dual specificity protein phosphatase 6 (Rattus norvegicus, UniProt Q64346); experiment: MKP-3 phosphatase inhibitors, primary screen, biochemical, rat enzyme, in vitro (AID 425)
T5 sequence (Q64346 whole entry): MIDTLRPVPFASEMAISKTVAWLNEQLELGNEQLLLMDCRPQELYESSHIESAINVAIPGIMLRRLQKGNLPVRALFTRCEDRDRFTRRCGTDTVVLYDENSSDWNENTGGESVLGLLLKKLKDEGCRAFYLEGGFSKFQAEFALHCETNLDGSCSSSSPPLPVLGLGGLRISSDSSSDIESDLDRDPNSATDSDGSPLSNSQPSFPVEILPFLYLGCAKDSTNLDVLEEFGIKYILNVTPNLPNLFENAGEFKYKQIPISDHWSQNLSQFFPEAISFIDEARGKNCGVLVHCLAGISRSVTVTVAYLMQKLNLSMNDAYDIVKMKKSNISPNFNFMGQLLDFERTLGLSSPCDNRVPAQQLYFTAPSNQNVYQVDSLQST

[15] = biological target: T6, Tyrosine-protein phosphatase non-receptor type 11 (Homo sapiens, UniProt Q06124); experiment: SHP2 phosphatase inhibition, dose response, selectivity assay for STEP inhibitor project, biochemical (AID 602367); type: functional; conditions: read-out: IC50_Mean
T6 sequence (Q06124 whole entry): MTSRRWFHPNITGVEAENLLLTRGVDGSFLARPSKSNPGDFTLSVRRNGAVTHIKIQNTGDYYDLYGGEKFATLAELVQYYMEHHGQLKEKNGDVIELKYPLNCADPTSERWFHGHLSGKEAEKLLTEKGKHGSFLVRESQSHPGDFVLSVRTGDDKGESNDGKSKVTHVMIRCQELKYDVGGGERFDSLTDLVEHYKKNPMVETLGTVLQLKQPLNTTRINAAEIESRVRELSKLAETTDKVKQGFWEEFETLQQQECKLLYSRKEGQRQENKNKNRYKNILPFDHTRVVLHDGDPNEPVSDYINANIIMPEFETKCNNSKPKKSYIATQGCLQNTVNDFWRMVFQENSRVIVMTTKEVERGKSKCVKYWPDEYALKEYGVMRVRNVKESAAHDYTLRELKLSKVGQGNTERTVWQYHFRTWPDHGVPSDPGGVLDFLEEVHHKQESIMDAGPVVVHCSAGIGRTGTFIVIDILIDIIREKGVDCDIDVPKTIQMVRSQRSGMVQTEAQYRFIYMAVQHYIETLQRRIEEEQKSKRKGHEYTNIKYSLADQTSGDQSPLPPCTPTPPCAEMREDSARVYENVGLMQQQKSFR

[16] = biological target: T7, Dual specificity protein phosphatase 3 (Homo sapiens, UniProt P51452); experiment: VHR1 phosphatase inhibitors, primary screen, biochemical, absorbance, uHTS (AID 1654)
[17] = biological target: T7, Dual specificity protein phosphatase 3; experiment: VHR phosphatase inhibition, dose response, selectivity assay for STEP inhibitor project, biochemical (AID 602374); type: functional; conditions: read-out: IC50_Mean
[18] = biological target: T8, Tyrosine-protein phosphatase non-receptor type 5 (Homo sapiens, UniProt P54829); experiment: STEP phosphatase inhibitors, confirmation, biochemical, fluorescence intensity, uHTS hits (AID 602372); type: functional; conditions: read-out: IC50_Mean
T8 sequence (P54829 whole entry): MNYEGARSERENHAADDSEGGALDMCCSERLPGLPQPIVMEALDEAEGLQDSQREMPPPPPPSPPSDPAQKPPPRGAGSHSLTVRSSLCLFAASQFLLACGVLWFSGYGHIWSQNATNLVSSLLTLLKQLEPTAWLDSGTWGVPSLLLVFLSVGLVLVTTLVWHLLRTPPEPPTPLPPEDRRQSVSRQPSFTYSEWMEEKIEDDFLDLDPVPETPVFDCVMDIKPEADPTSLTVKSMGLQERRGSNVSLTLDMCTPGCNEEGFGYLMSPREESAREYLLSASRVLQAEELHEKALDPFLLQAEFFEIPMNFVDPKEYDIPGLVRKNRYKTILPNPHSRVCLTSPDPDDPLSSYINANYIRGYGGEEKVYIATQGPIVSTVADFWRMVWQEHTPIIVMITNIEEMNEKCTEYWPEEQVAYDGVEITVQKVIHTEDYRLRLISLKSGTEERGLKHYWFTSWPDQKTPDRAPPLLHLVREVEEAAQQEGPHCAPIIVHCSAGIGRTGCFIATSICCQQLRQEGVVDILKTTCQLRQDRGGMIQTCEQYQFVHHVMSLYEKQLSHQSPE

[19] = biological target: T7, Dual specificity protein phosphatase 3; experiment: VHR1 phosphatase inhibitors, biochemical (AID 1878)
X-box-binding protein 1 = biological target: T9, X-box-binding protein 1 (Homo sapiens, UniProt P17861); type: functional, Cricetulus griseus;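 note: confirmatory dose-response counter-screen serving a CHOP assay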
T9 sequence (P17861 whole entry): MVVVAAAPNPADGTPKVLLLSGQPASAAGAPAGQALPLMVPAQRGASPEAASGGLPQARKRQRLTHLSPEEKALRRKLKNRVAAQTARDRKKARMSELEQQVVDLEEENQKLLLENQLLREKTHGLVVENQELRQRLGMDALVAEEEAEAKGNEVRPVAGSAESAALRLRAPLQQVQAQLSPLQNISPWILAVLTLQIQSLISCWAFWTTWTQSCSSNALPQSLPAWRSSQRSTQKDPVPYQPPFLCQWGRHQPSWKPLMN

[20] = biological target: T10, Ubiquitin-conjugating enzyme E2 N (Homo sapiens, UniProt P61088); type: functional;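 note: Dose-response confirmation in a TR-FRET assay detecting UBC13-driven polyubiquitin chain formation, inhibition measured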
T10 sequence (P61088 whole entry): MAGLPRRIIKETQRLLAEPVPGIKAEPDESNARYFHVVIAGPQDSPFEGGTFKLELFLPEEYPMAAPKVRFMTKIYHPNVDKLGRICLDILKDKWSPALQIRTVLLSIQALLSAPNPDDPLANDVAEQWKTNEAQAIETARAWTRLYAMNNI

For `N#C/C(=C\c1c[nH]c2ccccc12)C(=O)Nc1ncc(Cc2ccc(Cl)cc2Cl)s1`, the EC50 (Troponin, cardiac muscle) was > 71.5 µM (inactive).

In the case of `Cc1nnc(N2C(=O)C(O)=C(C(=O)c3ccco3)C2c2ccc(C(C)(C)C)cc2)s1` (stereo not drawn), the EC50 [1] is reported as > 2.94 µM (inactive), the EC50 [2] is reported as 24.9 µM (active) and the EC50 [3] is reported as 28.3 µM (not active). For the same molecule, the EC50 [4] was > 112 µM (not active), the EC50 [5] was > 99 µM (inactive) and the EC50 [6] was > 112 µM (not active). The EC50 [7] was 19.7 µM (active), the EC50 [8] was 7.86 µM (active) and the EC50 [9] was > 79.4 µM (not active).

With `O=C(COC(=O)C1CCN(S(=O)(=O)c2cc([N+](=O)[O-])ccc2Cl)CC1)Nc1ncc(Cl)cc1Cl` the IC50 (Bcl-2-like protein 10) was 3.81 µM (active), the IC50 [10] was 36.3 µM (active) and the IC50 [11] was 4.29 µM (active). For the same molecule, the IC50 [12] was 17.9 µM (active).

For `NC(=O)CC(NC(=O)Cc1cccc2ccccc12)c1ccc(NCc2cc(F)ccc2F)c([N+](=O)[O-])c1` (stereo not drawn), the “Absolute IC50 (CHOP)” value [13] was 10 µM.

In the case of `Cc1ccc(NC(=O)CN(C)c2ccc(S(=O)(=O)N3CCCC3)cn2)cc1`, the EC50 (Troponin, cardiac muscle) is reported as > 71.5 µM (inactive).

For `NC(=O)C1(N2CCCCC2)CCN(C(=S)Nc2ccc(S(N)(=O)=O)cc2)CC1`, the IC50 [14] was > 158 µM (not active), the IC50 [15] was 2 µM (active) and the IC50 [16] was 1.86 µM (active). The IC50 [17] was 0.811 µM (active), the IC50 [18] was 11.6 µM (active) and the IC50 [19] was 3.38 µM (active).

With `Cn1nc(-c2ccccc2)cc1NC(=O)Nc1ccc(C(C)(C)C)cc1` the “Absolute IC50 (CHOP)” value [13] was 10 µM and the “Absolute IC50 (XBP1)” value (X-box-binding protein 1) was 10 µM.

In the case of `COc1ccc(-c2c3c(nc4sc(C(=O)Nc5ccccc5)c(N)c24)CCC3)cc1`, the EC50 [1] is reported as > 79.4 µM (inactive), the EC50 [3] is reported as > 79.4 µM (not active) and the IC50 [20] is reported as > 20 µM (inactive). For the same molecule, the EC50 [9] was > 79.4 µM (not active).
